In patent US9458194B2, “Compounds useful in the treatment and/or care of the skin and their cosmetic or pharmaceutical compositions” (Lubrizol Advanced Materials, Inc., priority 2013, dated 2016):
Values joined by “and” are separate entries in the source; they are usually repeats but may differ in a detail not shown here. Equal entries are not always repeated.

Key:
Assay type in all cases: cell-based
type-I collagen = experiment: Type-I collagen synthesis in human dermal fibroblasts (ELISA); conditions: 0.01 μg/ml, 48 hours, vs negative control
Method: Stimulation of type-I collagen synthesis induced by cosmetic active ingredients was assessed by means of an ELISA (Enzyme-Linked Immunosorbent Assay) method.
Human dermal fibroblasts were trypsinized and seeded at a density of 5×10^4 cells/well in 48-well plates. After 24 hours of incubation at 37° C., 5% CO2, with a humidified atmosphere, a new medium was added with 0.01 μg/mL Ac-L-Asp-L-Val-L-Lys-L-Tyr-OH. Untreated cells were used as negative controls. The cells were incubated for an additional 48 hours at 37° C., 5% CO2, with humidified atmosphere. Subsequently, the medium was collected from each well to be analyzed by ELISA. A calibration curve with type-I collagen was prepared (Sigma) and the dilutions of this calibration curve were transferred to 96-well plates together with the mediums collected from the cells. The plates were left at 4° C. in a humid atmosphere for one night. Next the wells were washed three times with a washing solution prepared with PBS at 0.05% of Tween-20 (Sigma) and then any non-specific binding of the primary antibody with a solution of PBS at 3% BSA (sigma) was blocked. […] The reaction was stopped adding a solution of H2SO4 3 M and the absorbency reading was carried out at a wave length of 490 nm in a TECAN GENios spectrophotometric reader. […]

[1] = system: human dermal fibroblasts (HDFa); experiment: Gene expression profile of human dermal fibroblasts (microarray, GSEA); conditions: 0.05 mg/ml, 24 hours
Method: Adult human dermal fibroblasts (HDFa) were seeded (12.5×10^4 cells/vial T25 cm^2), and were incubated in complete medium 106 for 7 days at 37° C. in an atmosphere with 5% CO2. After the incubation, the cells were treated for 24 hours at 37° C. in an atmosphere with 5% CO2 with 0.05 mg/ml of the compound Ac-L-Asp-L-Val-L-Lys-L-Tyr-OH in complete medium 106 or in complete medium 106 as a negative control. The incubations and the treatments were carried out in duplicate for each condition.
After the treatments, RNA was extracted and purified, the quality and quantity was verified and the marking was carried out as was the hybridization of the samples in a human gene expression microarray (ASurePrint G3, Agilent). […] Next an evaluation of the genes by means of GSEA was carried out to encompass these genes according to their function/biological route. 24 hours after the treatments, the cells were lysed and the RNA was extracted and purified from each replica and each condition by means of the RNeasyPlus Mini kit by Qiagen. The lysed cells were briefly homogenized and the RNases were inactivated. The samples were passed through special RNA binding columns and after several microcentrifugation washes to eliminate contaminants and impurities, the purified RNA was eluted with 50 μl of ultrapure water. The purity, integrity and concentration of the RNA obtained were evaluated by means of spectrophotometry (Nanodrop) and with a bioanalyzer (Agilent Bioanalyzer).
The normalized values obtained with the treatment were compared with the normalized values obtained with the negative control to obtain genes with differential expression. […] The values obtained are also evaluated by means of GSEA (Gene Set Analysis Enrichment) to group together the genes with differential expression in terms of Gene Ontology and Biological Routes and the sets of genes with an expected proportion of incorrectly rejected null hypotheses were selected as significant (FDR) <25%. The results obtained are shown below in three different tables in which different families of genes are grouped together (collagen genes, genes involved in collagen synthesis and genes involved in cell adhesion).

LOXL1 = experiment: Immunofluorescence of LOXL1 protein expression in human dermal fibroblasts; conditions: 0.5 mg/mL, 48 hours, HDFa
Method: In this experiment the number of times that the expression of the proteins fibulin-5 and LOXL1 in human dermal fibroblasts is increased with regard to the basal levels in untreated cells (negative control) when treating the cells with 0.5 mg/ml of the product Ac-L-Asp-L-Val-L-Lys-L-Tyr-OH and it is compared with the effect of Interleukin-1β (IL-1β) at 20 ng/ml and TGF-β at 5 ng/ml (positive controls), which increase an average of 1.5 times and 2 times, respectively, the expression of these proteins, in the same conditions.
Adult human dermal fibroblasts were seeded (HDFa) (2.5×10^3 cells/well) in a 96-well transparent plate, treated with polylysine, and were incubated in complete medium 106 for 72 hours at 37° C. in an atmosphere with 5% CO2. After the incubation, the cells were treated with the different compounds in complete medium 106 for 48 hours at 37° C. in an atmosphere with 5% CO2. As positive controls of increase of the expression of the proteins fibulin-5 and LOXL1, 5 ng/ml of TGF-β and 20 ng/ml of IL-1β were used and as a negative control untreated cells were used, just with complete medium 106. The incubations and the treatments were carried out in quadruplicate for each condition. After the treatment, the levels of expression of both proteins were quantified relatively by using specific fluorescent antibodies, photographic recording by microscopy and subsequent quantification of the fluorescent signal using image processing software, the number of total cells by fluorescent staining of the nuclei (DAPI) and subsequent quantification in the same images. […] 16 hours later all the samples were stained with DAPI (4′,6-Diamidino-2-Phenylindole), fluorescent marker for the staining of nuclei, and the photographic recording was carried out by fluorescence microscopy in a Leica microscope. 2-4 images were taken per condition and per protein and the fluorescent signals were quantified (IOD) corresponding to each protein and the nuclei by means of image analysis software. […]

**Q.** Which “INCREASE IN SYNTHESIS OF TYPE-I COLLAGEN” value (type-I collagen) does the source give for “Ac-L-Asp-L-Val-L-Lys-L-Tyr-OH (Ac-DVKY-OH)” here?
**A.** The value was 47.3%.

**Q.** What about the “% Expression induction” value ([1]; ACTN1 (Actinin, alpha 1)) of the same substance?
**A.** The value was 27.4%.

**Q.** And the “% Expression induction” value ([1]; CAPNS1 (Calpain, small subunit 1))?
**A.** The value was 22.1%.

**Q.** And the “% Expression induction” value ([1]; CAPNS2 (Calpain, small subunit 2))?
**A.** The value was 17.9%.

**Q.** And the “% Expression induction” value ([1]; COL1A2 (Collagen, type-I, alpha 2))?
**A.** Its value is 31.1%.

**Q.** What about the “% Expression induction” value ([1]; COL4A1 (Collagen, type-IV, alpha 1)) of the same substance?
**A.** The value was 18.9%.

**Q.** And the “% Expression induction” value ([1]; COL4A2 (Collagen, type-IV, alpha 2))?
**A.** The value was 8.3%.

**Q.** What about the “% Expression induction” value ([1]; COL6A2 (Collagen, type-VI, alpha 2)) of the same substance?
**A.** The value was 16.0%.

**Q.** What about the “% Expression induction” value ([1]; COL6A3 (Collagen, type-VI, alpha 3)) of the same substance?
**A.** Its value is 18.6%.

**Q.** What about the “% Expression induction” value ([1]; COL11A1 (Collagen, type-XI, alpha 1)) of the same substance?
**A.** The value was 7.2%.

**Q.** And the “% Expression induction” value ([1]; COL14A1 (Collagen, type-XIV, alpha 1))?
**A.** Its value is 36.1%.

**Q.** What about the “% Expression induction” value ([1]; COL22A1 (Collagen, type-XXII, alpha 1)) of the same substance?
**A.** Its value is 7.7%.

**Q.** What about the “% Expression induction” value ([1]; COL27A1 (Collagen, type-XXVII, alpha 1)) of the same substance?
**A.** The value was 14.2%.

**Q.** And the “% Expression induction” value ([1]; GSN (Gelsolin))?
**A.** Its value is 30.1%.

**Q.** And the “% Expression induction” value ([1]; ITGB1 (Integrin, beta 1))?
**A.** The value was 33.0%.

**Q.** What about the “% Expression induction” value ([1]; PCOLCE (Procollagen C-endopeptidase enhancer)) of the same substance?
**A.** The value was 22.4%.

**Q.** And the “% Expression induction” value ([1]; PFN1 (Profilin 1))?
**A.** The value was 36.8%.

**Q.** What about the “% Expression induction” value ([1]; PLOD3 (Procollagen-lysine, 2-oxoglutarate 5-dioxygenase 3)) of the same substance?
**A.** Its value is 20.7%.

**Q.** And the “% Expression induction” value ([1]; ROCK1 (Rho-associated, coiled-coil containing protein kinase 1))?
**A.** Its value is 22.7%.

**Q.** What about the “% Expression induction” value ([1]; SERPINH1 (heat shock protein 47)) of the same substance?
**A.** Its value is 25.3%.

**Q.** And the “% Expression induction” value ([1]; TLN1 (Talin 1))?
**A.** The value was 27.5%.

**Q.** What about the “% Expression induction” value ([1]; VCL (Vinculin)) of the same substance?
**A.** Its value is 4.2%.

**Q.** And the “% Expression induction” value ([1]; ZYX (Zyxin))?
**A.** The value was 35.7%.

**Q.** What about the “Increase in the expression of the protein LOXL1 with regard to the negative control” value (LOXL1) of the same substance?
**A.** The value was 73% and 72.71%.
